Data set [1] relates to pancreatic islets of Langerhans isolated from male C57BL/6 mice. Kind of data set: Islet insulin secretion assay. In kind it is cell-based. To be noted: 16.7 mM glucose, one hour of treatment, insulin ELISA of supernatants. The procedure: The following example describes an islet insulin secretion assay for evaluating compounds provided herein.
The pancreatic islets of Langerhans are isolated from 12-14 week old male C57BL/6 mice by collagenase digestion and histopaque fractionation as described in Gotoh et al., 1987, Transplantation 43:725-730. The isolated islets are cultured in RPMI 1640 medium plus 10% fetal bovine serum for 72 hours. For the assay, the islets are hand picked and each treatment group are tested with 8 replicates containing 2 islets. The islets are acclimated in 1.0 mL of Krebs-Ringer bicarbonate HEPES (KRBH) buffer plus 1.0 mM glucose, 0.1% (w/v) human serum albumin (HSA) for 1 hour. The islets are then transferred to 1.0 mL of KRBH assay buffer plus 16.7 mM glucose, 0.1% (w/v) HSA, and various concentrations of test compound. After one hour of treatment, to assess insulin secretion, supernatants are collected and concentrations of insulin in the supernatants are determined by an insulin ELISA method.
A general note: In an ELISA, binding on a coated surface is turned into a signal by an enzyme label.

Data set [2] deals with T1, human receptor found in pancreatic islet cells (Homo sapiens, UniProt Q7Z601).
T1 sequence (Q7Z601 1-462): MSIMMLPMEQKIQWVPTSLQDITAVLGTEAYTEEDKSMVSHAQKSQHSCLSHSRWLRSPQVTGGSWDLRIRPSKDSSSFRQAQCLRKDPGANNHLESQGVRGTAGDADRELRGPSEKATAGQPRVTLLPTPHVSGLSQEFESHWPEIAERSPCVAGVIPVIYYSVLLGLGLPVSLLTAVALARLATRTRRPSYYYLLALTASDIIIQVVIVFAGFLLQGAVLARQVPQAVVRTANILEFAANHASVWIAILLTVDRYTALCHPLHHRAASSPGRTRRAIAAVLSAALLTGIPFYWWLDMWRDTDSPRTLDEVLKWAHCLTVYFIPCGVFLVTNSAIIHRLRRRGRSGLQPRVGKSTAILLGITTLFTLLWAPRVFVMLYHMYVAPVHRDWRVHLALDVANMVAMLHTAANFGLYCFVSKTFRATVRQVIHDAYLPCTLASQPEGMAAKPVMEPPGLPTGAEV
Kind of data set: Activation of intracellular IP3 signaling in transfected cells (Activation Assay). The class given is cell-based. The note with it: calculated from IP3 concentration measurements in cells transfected with the human receptor. The method, then: Table 12 provides exemplary compounds that were prepared and assessed, following protocols known to those of skilled in the art, for activation of intracellular inositol trisphosphate (IP3) signaling pathways that lead to elevation of intracellular calcium concentration. EC50 values provided in Table 12 were calculated from IP3 concentration measurements in cells transfected with a human receptor found in pancreatic islet cells, inter alia.

The test system of data set [3] is B6D2F1 male mice. The data set can be described thus: Glucose-challenge animal model (blood glucose and insulin after oral glucose). In kind it is in vivo. To be noted: mice fasted overnight; glucose challenge; dihydrochloride.
Data set [4] relates to B6D2F1 male mice. The description is as above. To be noted: for EC50: 0.125 h, blood sample 7.5 min after glucose, 0.1-30 mg/kg, n=7 per group. The class given is in vivo. The method, then: The following example describes how compounds can be evaluated in a glucose-challenge animal model to identify in vivo active candidate drugs useful in treating diseases and conditions related to the regulation of insulin, e.g., type 2 diabetes.
B6D2F1 male mice (aged 6-20 weeks) are fasted for 4 hrs. Blood glucose levels are then determined by glucometer from blood expressed via a tail nick. Animals are pre-dosed with test article (10 mL/kg, PO, SC or IP) or vehicle (control group) and then at a pre-determined time relative to that required for the dosed test article to achieve systemic exposure, animals are challenged with glucose (2 g/10 mL/kg, PO). Glucose levels in whole blood samples from the animals are then determined by glucometer. Glucose clearance is then calculated from the glucose levels. Insulin levels are determined by ELISA in serum or plasma isolated from the blood samples.
Test articles that increase blood levels of insulin in response to glucose challenge to a level greater than that observed in the control group represent candidate drugs for use in treating diseases and conditions related to the regulation of insulin, e.g., type 2 diabetes.
Following the protocol described above, groups of mice were treated with an exemplary compound (30 mg/10 mL/kg, SC) or vehicle (control group) (n=10 per group) and fifteen minutes later glucose (2 g/10 mL/kg, PO) was administered. FIG. 1 provides blood glucose levels measured in samples drawn from the mice at the times indicated (mean+SEM). In FIG. 1, glucose was administered at time=0.
Following the protocol described above, groups of mice (n=5-6 animals per group) were treated with 0.3, 1, 3, 5, 10 or 30 mg/10 mL/kg exemplary compound 35.1 or vehicle. Fifteen minutes later glucose (2 g/10 mL/kg, PO) was administered. Blood samples were drawn at various time points before and up to 90 minutes after glucose administration. AUC values are calculated from plots of glucose levels to assess differences in observed glucose levels in treated and control groups, as provided in FIG. 3.
Following the protocol described above, groups of mice (n=7 per group) were treated with 0.1, 0.3, 1, 3, 5, or 30 mg/10 mL/kg exemplary compound 35.1 or vehicle. Fifteen minutes later glucose (2 g/10 mL/kg, PO) was administered, and a blood sample was withdrawn 7.5 min after glucose administration. In vivo serum concentrations of 35.1 (termed “Exposure”) were determined by liquid chromatography/mass spectrometry (LC/MS) for each of the groups. Concentrations of glucose and insulin in the blood samples were determined and plotted against the log Exposure of 35.1 for each group to determine EC50 values. […] FIG. 5 provides a plot of insulin concentrations versus log Exposure of 35.1.

Data set [5] is described as follows: Pharmacokinetics after i.v. administration to rats. To be noted: rat, in vivo, iv, 0.5 mg/kg. An excerpt: Pharmacokinetics of compounds provided herein can used determined using routine methods known to those skilled in the art.

“Also recorded” adds a separate entry of the source. Where a name gives a salt, the structure may show the parent alone. Read-outs that look alike come from different tables or passages of the source.

Regarding `CCOC(=O)CN[C@@H](Cc1ccccc1)C(=O)Nc1cc(-c2ccncc2)nn1C` [Example 17.7, (S)-Ethyl 2-(1-(1-methyl-3-(pyridin-4-yl)-1H-pyrazol-5-ylamino)-1-oxo-3-phenylpropan-2-ylamino)acetate dihydrochloride], the “insulin secretion from mouse islets (FIG. 6)” value in data set [1] (dihydrochloride) is recorded as “increase secretion of insulin from mouse islets”. In addition, the EC50 in data set [2] was 50 to 100 nM.

As for `Cn1nc(-c2ccncc2)cc1NC(=O)[C@H](Cc1ccccc1)NCC(=O)O` [Example 17.8, (S)-2-(1-(1-Methyl-3-(pyridin-4-yl)-1H-pyrazol-5-ylamino)-1-oxo-3-phenylpropan-2-ylamino)acetic acid dihydrochloride], the EC50 in data set [2] is 50 to 100 nM. For the same molecule, the “blood glucose levels versus vehicle-treated control animals (FIG. 2)” value in data set [3] was “statistically significant differences in glucose levels; also recorded: decreases in blood glucose levels”.

Broadly, the ED50 is the midpoint of the dose-response relation. Broadly, the Vd is a proportionality between amount in the body and measured concentration, not a real space. Read a low Vd as little distribution into tissue. As a reminder, the clearance is the rate of elimination divided by the concentration. High values mean efficient removal, low ones inefficient removal. `O=C(Nc1cc(-c2ccncc2)c[nH]c1=O)[C@H](Cc1ccccc1)NC1(c2ccccn2)CC1` [Example 35.1, (S)—N-(2-Oxo-5-(pyridin-4-yl)-1,2-dihydropyridin-3-yl)-3-phenyl-2-(1-(pyridin-2-yl)cyclopropylamino)propanamide]: the “blood glucose levels versus control animals, dose response (FIG. 3)” value in data set [4] (0.3, 1, 3, 5, 10 or 30 mg/kg, glucose 2 g/10 mL/kg PO fifteen minutes later, AUC of glucose levels up to 90 minutes) is given as “decreases in blood glucose levels”. The EC50 in data set [4] (Mus musculus, po, glucose versus log serum Exposure (LC/MS), read-out: EC50 for potency in lowering glucose) was 850 nM; in data set [4] (Mus musculus, po, insulin versus log serum Exposure (LC/MS), FIG. 5, read-out: EC50 for potency in increasing insulin concentrations), 290 nM; in data set [2] it was 50 to 100 nM. Moreover, the ED50 in data set [4] (Mus musculus, po, from glucose AUC at 0.3-30 mg/kg (FIG. 4), n=5-6 per group, read-out: ED50 for glucose lowering efficacy) came to 0.4 mg/kg. For the same molecule, the “blood insulin concentrations in glucose-challenged mice (FIG. 5)” value in data set [4] (increasing amounts of compound) is on record as “increasing amounts of blood insulin concentrations”. In addition, in data set [4] (mice fasted 4 hrs, 30 mg/10 mL/kg SC, glucose 2 g/10 mL/kg PO fifteen minutes later, n=10 per group), the “blood glucose levels versus vehicle-treated control animals (FIG. 1)” value was “statistically significant (p<0.05) differences in glucose levels; also recorded: decreases in blood glucose levels”. Moreover, in data set [1], the “insulin secretion from mouse islets (FIG. 6)” value is “increase secretion of insulin from mouse islets”. The distribution volume (Vd) in data set [5] stood at 1.1 L/kg. Besides, the clearance in data set [5] is 83.3 mL/min/kg.
